Experimental data taken from patent US20220338473A1, “USE OF BENZYL ALCOHOL AS A HERBICIDE” (INNOVI, priority 2019, published 2022).

Legend:
Test in all cases: Preventative herbicide activity by sprinkling of the soil
Assay type in all cases: in vivo
Design in all cases: key to Plants sprouted despite the preventative treatment: yes: the areas where the plants have sprouted despite the preventative treatment; no: the areas where the preventative treatment made it possible to prevent the sprouting of the identified plants
Conditions in all cases: for Plants sprouted despite the preventative treatment: soil sprinkling
[1] = system: Bindweed
Protocol: (§1) Areas identified as each year showing the presence of couch grass, grass, bindweeds and thistles were treated preventatively. […] The results are reported in Table 6 below, in which the note “yes” indicates the areas where the plants have sprouted despite the preventative treatment, and the note “no” indicates the areas where the preventative treatment made it possible to prevent the sprouting of the identified plants.

[2] = system: Couch grass
Protocol: as §1

[3] = system: Grass
Protocol: as §1

[4] = system: Thistle
Protocol: as §1

OCc1ccccc1 [benzyl alcohol]
130 L/Ha: Quantity of benzyl alcohol (sprinkling) that prevents sprouting ([2]; preventative soil sprinkling)
no: Plants sprouted despite the preventative treatment ([1]; 110 L/Ha pure benzyl alcohol) | Plants sprouted despite the preventative treatment ([1]; 120 L/Ha pure benzyl alcohol) | Plants sprouted despite the preventative treatment ([1]; 130 L/Ha pure benzyl alcohol) | Plants sprouted despite the preventative treatment ([1]; 150 L/Ha pure benzyl alcohol) | Plants sprouted despite the preventative treatment ([2]; 130 L/Ha pure benzyl alcohol) | Plants sprouted despite the preventative treatment ([2]; 150 L/Ha pure benzyl alcohol) | Plants sprouted despite the preventative treatment ([3]; 120 L/Ha pure benzyl alcohol) | Plants sprouted despite the preventative treatment ([3]; 130 L/Ha pure benzyl alcohol) | Plants sprouted despite the preventative treatment ([3]; 150 L/Ha pure benzyl alcohol) | Plants sprouted despite the preventative treatment ([4]; 110 L/Ha pure benzyl alcohol) | Plants sprouted despite the preventative treatment ([4]; 120 L/Ha pure benzyl alcohol) | Plants sprouted despite the preventative treatment ([4]; 130 L/Ha pure benzyl alcohol) | Plants sprouted despite the preventative treatment ([4]; 150 L/Ha pure benzyl alcohol)
110 L/Ha: Quantity of benzyl alcohol (sprinkling) that prevents sprouting ([1]; preventative soil sprinkling) | Quantity of benzyl alcohol (sprinkling) that prevents sprouting ([4]; preventative soil sprinkling)
yes: Plants sprouted despite the preventative treatment ([1]; 50 L/ha pure benzyl alcohol) | Plants sprouted despite the preventative treatment ([1]; 70 L/Ha pure benzyl alcohol) | Plants sprouted despite the preventative treatment ([2]; 50 L/ha pure benzyl alcohol) | Plants sprouted despite the preventative treatment ([2]; 70 L/Ha pure benzyl alcohol) | Plants sprouted despite the preventative treatment ([2]; 110 L/Ha pure benzyl alcohol) | Plants sprouted despite the preventative treatment ([2]; 120 L/Ha pure benzyl alcohol) | Plants sprouted despite the preventative treatment ([3]; 50 L/ha pure benzyl alcohol) | Plants sprouted despite the preventative treatment ([3]; 70 L/Ha pure benzyl alcohol) | Plants sprouted despite the preventative treatment ([3]; 110 L/Ha pure benzyl alcohol) | Plants sprouted despite the preventative treatment ([4]; 50 L/ha pure benzyl alcohol) | Plants sprouted despite the preventative treatment ([4]; 70 L/Ha pure benzyl alcohol)
120 L/Ha: Quantity of benzyl alcohol (sprinkling) that prevents sprouting ([3]; preventative soil sprinkling)
